≈ marks a conversion by molar mass, not a printed value.
Legend:
Format in all cases: functional
[1] = test system: Mycobacterium tuberculosis; assay: Antimycobacterial activity against Mycobacterium tuberculosis H37Rv; details: for MIC: Mycobacterium tuberculosis, H37Rv
[2] = test system: Candida albicans; assay: Antifungal activity against Candida albicans MTCC 183; details: for MIC: Candida albicans, MTCC 183
[3] = test system: Aspergillus niger; assay: Antifungal activity against Aspergillus niger MTCC 282; details: for MIC: Aspergillus niger, MTCC 282
[4] = test system: Klebsiella pneumoniae; assay: Antibacterial activity against Klebsiella pneumoniae MTCC 109
[5] = test system: Pseudomonas aeruginosa; assay: Antibacterial activity against Pseudomonas aeruginosa MTCC 741
[6] = test system: Escherichia coli; assay: Antibacterial activity against Escherichia coli MTCC 739
[7] = test system: Bacillus cereus; assay: Antibacterial activity against Bacillus cereus MTCC 430
[8] = test system: Staphylococcus aureus; assay: Antibacterial activity against Staphylococcus aureus MTCC 96
[9] = Klebsiella pneumoniae, MTCC 109
[10] = Pseudomonas aeruginosa, MTCC 741

Molecule | inhibition (INH) [1] [%] | MIC [1] [µg/mL] | inhibition zone (IZ) [2] [mm] | MIC [2] [µg/mL] | inhibition zone (IZ) [3] [mm] | MIC [3] [µg/mL] | inhibition zone (IZ) [4] [mm] | MIC [4, 9] [µg/mL] | inhibition zone (IZ) [5] [mm] | MIC [5, 10] [µg/mL] | inhibition zone (IZ) [6] [mm] | MIC ([6]; Escherichia coli, MTCC 739) [µg/mL] | inhibition zone (IZ) [7] [mm] | MIC ([7]; Bacillus cereus, MTCC 430) [µg/mL] | inhibition zone (IZ) [8] [mm] | MIC ([8]; Staphylococcus aureus, MTCC 96) [µg/mL] | further results
Cc1cccc(Oc2nc(-c3ccc(NC(=S)Nc4ccc(Cl)cc4)cc3)nc3ccccc23)c1 | 98 | 25 (≈ 50.3 µM) | 28 | 25 (≈ 50.3 µM) | 24 | 12.5 (≈ 25.1 µM) | 27 | 25 (≈ 50.3 µM) | 26 | 12.5 (≈ 25.1 µM) | 27 | 25 (≈ 50.3 µM) | 27 | 50 (≈ 101 µM) | 24 | 12.5 (≈ 25.1 µM) | 
CO[C@H]1/C=C/O[C@@]2(C)Oc3c(C)c(O)c4c(O)c(c(/C=N/N5CCN(C)CC5)c(O)c4c3C2=O)NC(=O)/C(C)=C\C=C\[C@H](C)[C@H](O)[C@@H](C)[C@@H](O)[C@@H](C)[C@H](OC(C)=O)[C@@H]1C [RIFAMPIN] | 99 | 0.25 (≈ 0.304 µM) |  |  |  |  |  |  |  |  |  |  |  |  |  |  | 
COc1ccc(NC(=O)Nc2ccc(-c3nc(Oc4cccc(C)c4)c4ccccc4n3)cc2)cc1 | 94 | 62.5 (≈ 131 µM) | 25 | 25 (≈ 52.5 µM) | 23 | 50 (≈ 105 µM) | 26 | 200 (≈ 420 µM) | 26 | 25 (≈ 52.5 µM) | 24 | 200 (≈ 420 µM) | 22 | 50 (≈ 105 µM) | 23 | 25 (≈ 52.5 µM) | 
CC1(C)S[C@@H]2[C@H](NC(=O)[C@H](N)c3ccccc3)C(=O)N2[C@H]1C(=O)O [AMPICILLIN] |  |  |  |  |  |  | 33 | 25 (≈ 71.5 µM) | 28 | 25 (≈ 71.5 µM) | 31 | 6.25 (≈ 17.9 µM) | 28 | 12.5 (≈ 35.8 µM) | 30 | 12.5 (≈ 35.8 µM) | 
Cc1cccc(Oc2nc(-c3ccc(NC(=S)Nc4ccccc4)cc3)nc3ccccc23)c1 | 95 | 100 (≈ 216 µM) | 25 | 200 (≈ 432 µM) | 23 | 50 (≈ 108 µM) | 22 | 200 (≈ 432 µM) | 25 | 50 (≈ 108 µM) | 26 | 250 (≈ 540 µM) | 24 | 50 (≈ 108 µM) | 27 | 200 (≈ 432 µM) | 
Cc1ccc(NC(=O)Nc2ccc(-c3nc(Oc4cccc(C)c4)c4ccccc4n3)cc2)cc1 | 95 | 200 (≈ 434 µM) | 24 | 50 (≈ 109 µM) | 21 | 200 (≈ 434 µM) | 24 | 50 (≈ 109 µM) | 27 | 25 (≈ 54.3 µM) | 24 | 25 (≈ 54.3 µM) | 24 | 250 (≈ 543 µM) | 23 | 100 (≈ 217 µM) | 
Cc1cccc(Oc2nc(-c3ccc(NC(=O)Nc4ccc(Br)cc4)cc3)nc3ccccc23)c1 | 99 | 25 (≈ 47.6 µM) | 24 | 50 (≈ 95.2 µM) | 22 | 62.5 (≈ 119 µM) | 24 | 50 (≈ 95.2 µM) | 25 | 25 (≈ 47.6 µM) | 27 | 62.5 (≈ 119 µM) | 28 | 12.5 (≈ 23.8 µM) | 24 | 12.5 (≈ 23.8 µM) | 
GENTAMICIN |  |  |  |  |  |  | 30 |  |  |  |  |  | 30 |  |  |  | MIC [4]: 25 µg/mL; MIC [5]: 12.5 µg/mL; MIC [6]: 12.5 µg/mL; MIC [7]: 6.25 µg/mL; MIC [8]: 6.25 µg/mL
Cc1cccc(Oc2nc(-c3ccc(NC(=O)Nc4ccc(Cl)cc4)cc3)nc3ccccc23)c1 | 98 | 100 (≈ 208 µM) | 21 | 100 (≈ 208 µM) | 26 | 200 (≈ 416 µM) | 23 | 62.5 (≈ 130 µM) | 24 | 50 (≈ 104 µM) | 27 | 62.5 (≈ 130 µM) | 24 | 100 (≈ 208 µM) | 25 | 50 (≈ 104 µM) | 
NNC(=O)c1ccncc1 [ISONIAZID] |  | 0.2 (≈ 1.46 µM) |  |  |  |  |  |  |  |  |  |  |  |  |  |  | 
Cc1cccc(Oc2nc(-c3ccc(NC(=S)Nc4ccc(Br)cc4)cc3)nc3ccccc23)c1 | 99 | 12.5 (≈ 23.1 µM) | 27 | 12.5 (≈ 23.1 µM) | 23 | 25 (≈ 46.2 µM) | 27 | 12.5 (≈ 23.1 µM) | 25 | 25 (≈ 46.2 µM) | 25 | 50 (≈ 92.3 µM) | 26 | 12.5 (≈ 23.1 µM) | 29 | 6.25 (≈ 11.5 µM) | 
NC(=O)c1cnccn1 [PYRAZINAMIDE] | 99 | 6.25 (≈ 50.8 µM) |  |  |  |  |  |  |  |  |  |  |  |  |  |  | 
CC[C@@H](CO)NCCN[C@@H](CC)CO [ETHAMBUTOL] | 99 | 3.12 (≈ 15.3 µM) |  |  |  |  |  |  |  |  |  |  |  |  |  |  | 
Cc1cccc(Oc2nc(-c3ccc(NC(=O)Nc4ccccc4)cc3)nc3ccccc23)c1 | 95 | 250 (≈ 560 µM) | 23 | 250 (≈ 560 µM) | 22 | 200 (≈ 448 µM) | 19 | 100 (≈ 224 µM) | 21 | 62.5 (≈ 140 µM) | 23 | 100 (≈ 224 µM) | 20 | 250 (≈ 560 µM) | 22 | 200 (≈ 448 µM) | 
CCOc1ccc(NC(=S)Nc2ccc(-c3nc(Oc4cccc(C)c4)c4ccccc4n3)cc2)cc1 | 95 | 200 (≈ 395 µM) | 22 | 50 (≈ 98.7 µM) | 26 | 25 (≈ 49.3 µM) | 23 | 25 (≈ 49.3 µM) | 26 | 12.5 (≈ 24.7 µM) | 24 | 62.5 (≈ 123 µM) | 19 | 100 (≈ 197 µM) | 22 | 12.5 (≈ 24.7 µM) | 
COc1ccc(NC(=S)Nc2ccc(-c3nc(Oc4cccc(C)c4)c4ccccc4n3)cc2)cc1 | 97 | 100 (≈ 203 µM) | 28 | 12.5 (≈ 25.4 µM) | 21 | 50 (≈ 102 µM) | 24 | 50 (≈ 102 µM) | 27 | 25 (≈ 50.8 µM) | 27 | 25 (≈ 50.8 µM) | 24 | 50 (≈ 102 µM) | 25 | 12.5 (≈ 25.4 µM) | 
Cc1ccc(NC(=S)Nc2ccc(-c3nc(Oc4cccc(C)c4)c4ccccc4n3)cc2)cc1 | 94 | 100 (≈ 210 µM) | 23 | 50 (≈ 105 µM) | 18 | 200 (≈ 420 µM) | 21 | 50 (≈ 105 µM) | 23 | 50 (≈ 105 µM) | 23 | 50 (≈ 105 µM) | 21 | 200 (≈ 420 µM) | 22 | 50 (≈ 105 µM) | 
Cc1cccc(Oc2nc(-c3ccc(NC(=O)Nc4ccc(F)cc4)cc3)nc3ccccc23)c1 | 97 | 62.5 (≈ 135 µM) | 26 | 12.5 (≈ 26.9 µM) | 23 | 25 (≈ 53.8 µM) | 21 | 200 (≈ 431 µM) | 23 | 100 (≈ 215 µM) | 23 | 62.5 (≈ 135 µM) | 21 | 100 (≈ 215 µM) | 22 | 200 (≈ 431 µM) | 
OC(Cn1cncn1)(Cn1cncn1)c1ccc(F)cc1F [FLUCONAZOLE] |  |  | 31 | 12.5 (≈ 40.8 µM) | 30 | 6.25 (≈ 20.4 µM) |  |  |  |  |  |  |  |  |  |  | 
CCOc1ccc(NC(=O)Nc2ccc(-c3nc(Oc4cccc(C)c4)c4ccccc4n3)cc2)cc1 | 96 | 100 (≈ 204 µM) | 27 | 50 (≈ 102 µM) | 23 | 50 (≈ 102 µM) | 25 | 25 (≈ 51 µM) | 26 | 50 (≈ 102 µM) | 24 | 200 (≈ 408 µM) | 24 | 25 (≈ 51 µM) | 22 | 50 (≈ 102 µM) | 
Cc1cccc(Oc2nc(-c3ccc(NC(=S)Nc4ccc(F)cc4)cc3)nc3ccccc23)c1 | 96 | 50 (≈ 104 µM) | 25 | 6.25 (≈ 13 µM) | 22 | 50 (≈ 104 µM) | 24 | 100 (≈ 208 µM) | 25 | 50 (≈ 104 µM) | 27 | 25 (≈ 52 µM) | 27 | 200 (≈ 416 µM) | 24 | 25 (≈ 52 µM) | 

Source: ChEMBL document CHEMBL2424558, “Synthesis and biological evaluation of novel quinazoline derivatives obtained by Suzuki CC coupling” (2013)
